This is an account of results in US12534469B2 (CHILDREN'S HOSPITAL MEDICAL CENTER, priority 2020, dated 2026).

The IC50 is the concentration at which inhibition is half-maximal.

One assay has as its target T1, IRAK4 (Homo sapiens, UniProt Q9NWZ3).
T1 sequence (Q9NWZ3 1-460): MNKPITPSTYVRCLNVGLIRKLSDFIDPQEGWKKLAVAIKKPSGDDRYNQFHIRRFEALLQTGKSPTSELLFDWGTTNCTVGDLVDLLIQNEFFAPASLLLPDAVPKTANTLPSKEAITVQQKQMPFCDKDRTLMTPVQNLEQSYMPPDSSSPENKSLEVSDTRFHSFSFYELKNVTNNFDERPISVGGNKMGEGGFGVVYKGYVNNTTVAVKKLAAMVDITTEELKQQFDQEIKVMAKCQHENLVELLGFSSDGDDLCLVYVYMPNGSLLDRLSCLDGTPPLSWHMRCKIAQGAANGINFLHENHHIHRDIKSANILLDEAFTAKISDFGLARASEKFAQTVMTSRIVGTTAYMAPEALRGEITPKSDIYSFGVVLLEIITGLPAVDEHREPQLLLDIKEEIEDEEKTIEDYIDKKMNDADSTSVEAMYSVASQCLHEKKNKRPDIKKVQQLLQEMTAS
In words: RBC HotSpot Kinase Assay, IRAK4. The class given is biochemical. The arrangement: purchased Reaction Biology (RBC HotSpot Kinase Assay). An outline of the steps: (§1)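 Radiometric filter-binding (HotSpot) activity assay on isolated recombinant kinase, possibly truncated or catalytic domain only, in 20 mM Hepes pH 7.5, 10 mM MgCl2, 1 mM EGTA, 2 mM DTT, 1% DMSO. Compound preincubated 20 min with kinase and substrate, then ^33P-ATP added. Reaction 2 h at room temperature, read by P81 filter binding.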

Another assay relates to MOLM14 F691L cells. In words: MOLM14 F691L cell viability assay (Cell Titer Glo). The class given is cell-based. As to conditions: Homo sapiens, MOLM-14, 48 h. The protocol:
(§2) Both cell lines have activated FLT3 receptors, each of which carry additional resistance mutations in the kinase domain (D835Y and F691L, respectively).
(§3) MOLM14 D835Y and MOLM14 F691L cells were grown in RPMI-1640 media supplemented with 20% fetal bovine serum (FBS). For viability/cytotoxicity assessments, cells were seeded into 1536-well white polystyrene tissue culture-treated Greiner plates using a Multidrop Combi dispenser (ThermoFisher), in final volume 5 μL of growth media per well, at a density of 1000 cells per well. After cell addition, 23 nL of test compound were transferred into individual wells (22 doses tested for each test compound, with a 1:2 dilution series starting at 10 μM) via a 1536 pin-tool. Bortezomib (final concentration 2.3 μM) was used as a positive control for cell cytotoxicity. Plates were incubated for 48 hours at standard incubator conditions covered by a stainless steel gasketed lid to prevent evaporation. 48 hours post compound addition, 3 μL of Cell Titer Glo (Promega) were added to each well and plates were incubated at room temperature for 15 minutes with the stainless-steel lid in place. Luminescence readings were taken using a Viewlux imager (PerkinElmer) with a 2 second exposure time per plate.
(In general: In ATP-based viability assays light output follows the ATP content of the culture.)

Another assay has as its system MOLM14 D835Y cells. Kind of assay: MOLM14 D835Y cell viability assay (Cell Titer Glo). The class given is cell-based. As to conditions: Homo sapiens, MOLM-14, 48 h. The protocol: as §2, §3
In a further assay the target is T2, FLT3 (Homo sapiens, UniProt P36888).
T2 construct: purchased Reaction Biology (RBC HotSpot Kinase Assay)
T2 sequence (P36888 564-958 limits assumed): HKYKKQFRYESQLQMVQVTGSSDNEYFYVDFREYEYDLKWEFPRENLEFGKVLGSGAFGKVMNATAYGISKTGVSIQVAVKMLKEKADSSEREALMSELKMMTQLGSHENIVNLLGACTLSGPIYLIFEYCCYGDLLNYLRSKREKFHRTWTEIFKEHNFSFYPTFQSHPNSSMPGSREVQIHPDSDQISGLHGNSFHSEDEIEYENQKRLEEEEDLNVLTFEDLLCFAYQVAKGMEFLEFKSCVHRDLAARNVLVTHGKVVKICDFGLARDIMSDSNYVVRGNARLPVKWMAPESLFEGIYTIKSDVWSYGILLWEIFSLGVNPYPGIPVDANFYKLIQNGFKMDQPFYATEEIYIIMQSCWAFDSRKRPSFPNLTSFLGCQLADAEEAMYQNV
In words: RBC HotSpot Kinase Assay, FLT3. It counts as biochemical. An outline of the steps: as §1

A further assay addresses T3, IRAK1 (Homo sapiens, UniProt P51617).
T3 construct: purchased Reaction Biology (RBC HotSpot Kinase Assay)
Kind of assay: RBC HotSpot Kinase Assay, IRAK1. The class given is biochemical. Summed up:
as §1

In another assay the test system is THP-1-Blue NF-κB cells. Kind of assay: NF-kB SEAP reporter assay in THP-1-Blue NF-κB cells. Conditions: 24 hours. The class given is cell-based. The protocol: THP-1-Blue NF-κB cells (InvivoGen) carrying a stable integrated NF-κB-inducible secreted embryonic alkaline phosphatase (SEAP) reporter construct were plated at a concentration of 1×10^5 cells per well. The cells were stimulated with Pam3CSK4 (1 ng/mL) or hIL1B (1 ng/mL). After 10-20 minutes, the cells were then treated with vehicle (DMSO) or serial dilutions of the test compounds (10 doses tested for each test compound, with a 1:10 dilution series starting at 1 μM or 3 μM) with a final volume of 200 μL for 24 hours at 37° C. After 24 hours, the cells were centrifuged and 20 μL supernatant was incubated with 180 μL QUANTI-Blue reagent at 37° C. for 30-60 minutes. The levels of NF-κB-induced gene expression were measured in a microplate reader at 620 nm.

Setting [1] is: stimulated with Pam3CSK4 (1 ng/mL), read-out: NF-κB Pam3SCK4 IC50.
Setting [2] is: stimulated with hIL1B (1 ng/mL), read-out: NF-κB IL1B IC50.

Molecules are shown by their SMILES. Like-named read-outs stand apart in the source and are kept apart here.

T3 sequence (P51617 whole entry): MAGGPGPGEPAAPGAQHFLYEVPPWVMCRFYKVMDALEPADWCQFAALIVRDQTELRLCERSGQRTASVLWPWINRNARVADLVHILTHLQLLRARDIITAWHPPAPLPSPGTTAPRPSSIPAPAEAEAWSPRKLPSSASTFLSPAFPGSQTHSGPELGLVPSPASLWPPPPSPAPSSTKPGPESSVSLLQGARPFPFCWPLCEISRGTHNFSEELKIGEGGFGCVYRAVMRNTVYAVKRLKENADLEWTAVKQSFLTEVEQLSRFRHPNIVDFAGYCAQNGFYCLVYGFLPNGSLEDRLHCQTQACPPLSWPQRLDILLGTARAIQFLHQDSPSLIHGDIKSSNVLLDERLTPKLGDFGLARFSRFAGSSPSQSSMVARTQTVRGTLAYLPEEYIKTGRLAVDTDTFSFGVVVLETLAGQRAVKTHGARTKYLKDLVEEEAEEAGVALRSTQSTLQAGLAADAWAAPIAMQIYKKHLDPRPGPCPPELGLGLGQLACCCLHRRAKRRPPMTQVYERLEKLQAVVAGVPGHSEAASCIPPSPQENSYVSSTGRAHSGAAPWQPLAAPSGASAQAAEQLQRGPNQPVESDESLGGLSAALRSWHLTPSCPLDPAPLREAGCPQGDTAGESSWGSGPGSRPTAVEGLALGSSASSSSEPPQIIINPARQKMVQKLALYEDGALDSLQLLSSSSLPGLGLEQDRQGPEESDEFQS

With `COc1cc2ncc(-c3cccc(N[C@H]4CNC[C@@H]4F)n3)n2nc1C(F)F` [Compound 116, 6-(6-(difluoromethyl)-7-methoxyimidazo[1,2-b]pyridazin-3-yl)-N-((3S,4S)-4-fluoropyrrolidin-3-yl)pyridin-2-amine], the IC50 against IRAK4 is < 0.5 nM; in the assay with MOLM14 F691L cells it was 1090 nM; in the assay on MOLM14 D835Y cells it was 77 nM; on FLT3, < 0.5 nM; on IRAK1 it was 25 nM; in the assay with THP-1-Blue NF-κB cells (setting [1]) it was 20 nM. In addition, the 50% inhibitory concentration (IC50) in the assay with THP-1-Blue NF-κB cells (setting [2]) is 46 nM.

Turning to `COc1cc2ncc(-c3cccc(N[C@H]4CNCC[C@@H]4F)n3)n2nc1C(F)F` [Compound 118, 6-(6-(difluoromethyl)-7-methoxyimidazo[1,2-b]pyridazin-3-yl)-N-((3S,4S)-4-fluoropiperidin-3-yl)pyridin-2-amine], the half-maximal inhibitory concentration (IC50) is 2 nM against IRAK4; 770 nM in the assay with MOLM14 F691L cells; 61 nM in the assay on MOLM14 D835Y cells; < 0.5 nM against FLT3; 70 nM against IRAK1; 76 nM with THP-1-Blue NF-κB cells (setting [1]). Further, the IC50 in the assay on THP-1-Blue NF-κB cells (setting [2]) came out at 216 nM.

For `COc1cc2ncc(-c3cccc(N[C@H]4CNC[C@@H]4F)n3)n2nc1-c1cnn(C)c1` [Compound 121, N-((3S,4S)-4-fluoropyrrolidin-3-yl)-6-(7-methoxy-6-(1-methyl-1H-pyrazol-4-yl)imidazo[1,2-b]pyridazin-3-yl)pyridin-2-amine], the IC50 against IRAK4 is 11 nM; in the assay on MOLM14 F691L cells, 1370 nM; with MOLM14 D835Y cells, 97 nM; on FLT3, 1 nM; at IRAK1 it was 778 nM.

Turning to `COc1cc2ncc(-c3cccc(N[C@H]4CNCC[C@@H]4F)n3)n2nc1-c1cnn(C)c1` [Compound 122, N-((3S,4S)-4-fluoropiperidin-3-yl)-6-(7-methoxy-6-(1-methyl-1H-pyrazol-4-yl)imidazo[1,2-b]pyridazin-3-yl)pyridin-2-amine], the IC50 amounted to 37 nM on IRAK4; 686 nM with MOLM14 F691L cells; 49 nM in the assay with MOLM14 D835Y cells; 0.7 nM against FLT3; 537 nM at IRAK1.
